The structures appear in SMILES notation. Counter-ions that a name gives are not always drawn.

Assay [1] has as its target T1, PIM1 serine/threonine kinase (Homo sapiens, UniProt P11309).
T1 construct: purchased Carna Bioscience, Inc
The assay can be described thus: PIM1 serine/threonine kinase inhibitory effect. In kind it is biochemical. Conditions: PIM1 serine/threonine kinase activity; ATP 40 μM; 30° C., 30 minutes. In short, it runs like this:
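Compounds were tested in duplicate from 0.01 to 10000 nM final against PIM1 kinase (0.15 μg/ml). The reaction ran for 30 minutes at 30° C with 40 μM ATP and 0.5 μM biotin-tagged substrate at pH 7.0. Phosphorylation was read by time-resolved FRET (OD665/OD620) after 1 h; IC50 by non-linear fit.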

In assay [2] the test system is graft-versus-host disease model CB6F1 mice. The assay can be described thus: Lymphocyte proliferation inhibitory effect using graft-versus-host disease model animals (splenomegaly formation). The assay is classed as in vivo. Conditions: Mus musculus, 240 h, oral, twice a day for 10 days, GVHD model CB6F1 mice, read-out: Inhibition rate (%) (splenomegaly formation); for inhibition in vivo at 30 mg/kg: single dose 30 mg/kg. The procedure:
BALB/c mice (8-week-aged female) were euthanized, and then the spleen was removed from each mouse. Then, hemolysis treatment was performed to isolate spleen cells. The obtained spleen cells were intravenously transplanted into CB6F1 mice (8-week-aged female), which are C57BL/6 and BALB/c F1 mice, to prepare a model, and splenomegaly was induced. For transplantation, spleen cells for 1.2 BALB/c mouse were used for one CB6F1 mouse.
Each test substance shown in Table 64 was weighed and dissolved in a 0.5% methyl cellulose solution, thereby preparing test substance solutions of 0.3 to 10 mg/mL.
A vehicle (0.5% methyl cellulose solution) or test substance was orally administered to each CB6F1 mouse after transplantation at a dose of 3 to 50 mg/kg in terms of body weight twice a day for 10 days from the day after transplantation. The mouse was euthanized on the 11th day from the start of administration, then the spleen was removed therefrom, and the wet weight of the spleen was measured. For each of CB6F1 mice that had not undergone transplantation as a control group, the wet weight of the spleen was also measured.
The splenomegaly formation inhibition rate when the spleen weights of the mice to which the vehicle was administered after transplantation and the mice on which transplantation had not been performed were 0% and 100%, respectively, was calculated.

For assay [3], the target named is PIM1 transgenic cells (Ba/F3) (Homo sapiens, UniProt P11309). Kind of assay: Proliferation inhibitory effect on PIM1 transgenic cells. The assay is classed as cell-based, mouse. Conditions: proliferation inhibition, 72 hours, Cell Counting Kit-8, read-out: PIM1 IC50. In outline:
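Mouse Ba/F3 pro-B cells were retrovirally transduced with human PIM1 so that their proliferation depends on PIM1. Cells were treated with compound at 1–10000 nM final for 72 h, then read by CCK-8 (OD450−OD650). Inhibition was set against DMSO (0%) and no-cell blank (100%), and IC50 was obtained by two-parameter logistic regression.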

Chain of PIM1 transgenic cells (Ba/F3) (P11309 whole entry, stated change not applied): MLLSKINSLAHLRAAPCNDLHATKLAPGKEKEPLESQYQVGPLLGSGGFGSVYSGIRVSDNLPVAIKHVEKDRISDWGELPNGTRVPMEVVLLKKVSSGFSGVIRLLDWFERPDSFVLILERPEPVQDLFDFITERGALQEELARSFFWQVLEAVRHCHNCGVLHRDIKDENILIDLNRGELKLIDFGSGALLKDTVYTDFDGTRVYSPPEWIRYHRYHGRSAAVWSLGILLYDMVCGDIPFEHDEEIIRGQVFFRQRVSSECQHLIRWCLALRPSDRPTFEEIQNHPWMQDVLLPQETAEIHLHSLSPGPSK
T1 sequence (P11309 whole entry): as the sequence (P11309 whole entry, stated change not applied) above

In assay [1], `C[C@H](Nc1cc(-c2n[nH]c(=O)o2)cc(Br)c1Cl)C1CCNCC1` [Example 97, 5-(3-bromo-4-chloro-5-{[(1S)-1-(piperidin-4-yl)ethyl]amino}phenyl)-1,3,4-oxadiazol-2(3H)-one dihydrochloride] came in with a half-inhibitory concentration (IC50) of 1.2 nM. Further, the inhibition in vivo at 50 mg/kg in assay [2] (single dose 50 mg/kg) turned out to be 33%. The GI50 in assay [3] was 55 nM.

Molecule `C[C@H](Nc1cc(-c2n[nH]c(=O)o2)ccc1C(F)(F)F)[C@H]1CC[C@H](N)CC1` [Example 106, 5-[3-({(1S)-1-[(1r,4S)-4-aminocyclohexyl]ethyl}amino)-4-(trifluoromethyl)phenyl]-1,3,4-oxadiazol-2(3H)-one hydrochloride] had an IC50 in assay [1] of 1.5 nM. The inhibition in vivo at 30 mg/kg in assay [2] is 39.8%. Also, the GI50 in assay [3] turned out to be 19 nM.

In turn, `C[C@H](Nc1cc(-c2n[nH]c(=O)o2)ccc1C(F)(F)F)C1(F)CCNCC1` [Example 125, 5-[3-{[(1S)-1-(4-fluoropiperidin-4-yl)ethyl]amino}-4-(trifluoromethyl)phenyl]-1,3,4-oxadiazol-2(3H)-one hydrochloride] registered an IC50 in assay [1] of 2.9 nM. Moreover, the inhibition in vivo at 30 mg/kg in assay [2] was 45.1%. In addition, the GI50 in assay [3] was found to be 40 nM.

In assay [1], `C[C@H](Nc1cc(-c2n[nH]c(=O)o2)ccc1C(F)(F)F)[C@@H]1C[C@H](N)C1(C)C` [Example 137, 5-[3-({(1S)-1-[(1R,3S)-3-amino-2,2-dimethylcyclobutyl]ethyl}amino)-4-(trifluoromethyl)phenyl]-1,3,4-oxadiazol-2(3H)-one hydrochloride] registered a 50% inhibitory concentration (IC50) of 2.2 nM. Also, in assay [2], the inhibition in vivo at 30 mg/kg worked out at 47.5%. The GI50 in assay [3] is 27 nM.

In turn, `C[C@H](Nc1cc(-c2n[nH]c(=O)o2)ccc1C(F)(F)F)[C@H]1C[C@@H](N)C1` [Example 145, 5-[3-({(1S)-1-[(1s,3R)-3-aminocyclobutyl]ethyl}amino)-4-(trifluoromethyl)phenyl]-1,3,4-oxadiazol-2(3H)-one hydrochloride] returned a concentration for half-maximal inhibition (IC50) in assay [1] of 4 nM. Further, the inhibition in vivo at 10 mg/kg in assay [2] (single dose 10 mg/kg) came out at 27.3%. For the same molecule, the inhibition in vivo at 20 mg/kg in assay [2] (single dose 20 mg/kg) came out at 35.6%. Further, the GI50 in assay [3] was found to be 61 nM.

For the molecule `N[C@H]1CC[C@H](COc2cc(-c3n[nH]c(=O)o3)ccc2Br)CC1` [Example 238, 5-(3-{[(1r,4r)-4-aminocyclohexyl]methoxy}-4-bromophenyl)-1,3,4-oxadiazol-2(3H)-one], 2.5 nM corresponded to half-maximal inhibition in assay [1] (IC50). The GI50 in assay [3] was 87 nM.

In assay [1], `CC(Oc1cc(-c2n[nH]c(=O)o2)ccc1C(F)(F)F)C1CCNCC1` (centres unmarked) [Example 239, 5-{3-[1-(piperidin-4-yl)ethoxy]-4-(trifluoromethyl)phenyl}-1,3,4-oxadiazol-2(3H)-one] returned a concentration for half-maximal inhibition (IC50) of 10 nM. Moreover, the GI50 in assay [3] turned out to be 250 nM.

For the molecule `N[C@H]1CC[C@H](COc2cc(-c3n[nH]c(=O)o3)ccc2C(F)(F)F)CC1` [Example 240, 5-[3-{[(1r,4r)-4-aminocyclohexyl]methoxy}-4-(trifluoromethyl)phenyl]-1,3,4-oxadiazol-2(3H)-one], in assay [1], half-maximal inhibition (IC50) required 1.9 nM. Further, the GI50 in assay [3] amounted to 87 nM.

Molecule `N[C@H]1CC[C@H](COc2cc(-c3n[nH]c(=O)o3)ccc2Cl)CC1` [Example 241, 5-(3-{[(1r,4r)-4-aminocyclohexyl]methoxy}-4-chlorophenyl)-1,3,4-oxadiazol-2(3H)-one] had an IC50 in assay [1] of 3.7 nM. In addition, in assay [3], the GI50 was 79 nM.

In turn, `O=c1[nH]nc(-c2ccc(Cl)c(OC[C@H]3C[C@@H](N4CCNCC4)C3)c2)o1` [Example 242, 5-(4-chloro-3-{[(1s,3s)-3-(piperazin-1-yl)cyclobutyl]methoxy}phenyl)-1,3,4-oxadiazol-2(3H)-one] came in with an IC50 in assay [1] of 10 nM. For the same molecule, the GI50 in assay [3] was found to be 2600 nM.

On to `N[C@H]1CC[C@@H](COc2cc(-c3n[nH]c(=O)o3)ccc2Cl)CC1` [Example 243, 5-(3-{[(1s,4s)-4-aminocyclohexyl]methoxy}-4-chlorophenyl)-1,3,4-oxadiazol-2(3H)-one], for which the 50% inhibitory concentration (IC50) in assay [1] came to 4.1 nM. Further, the GI50 in assay [3] amounted to 150 nM.

For the molecule `N[C@H]1CC[C@H](CN2CCCc3ccc(-c4n[nH]c(=O)o4)cc32)CC1` [Example 244, 5-(1-{[(1r,4r)-4-aminocyclohexyl]methyl}-1,2,3,4-tetrahydroquinolin-7-yl)-1,3,4-oxadiazol-2(3H)-one], half-maximal inhibition in assay [1] (IC50) required 11 nM. Also, in assay [3], the GI50 is 140 nM.

`C[C@@H]1CNCC[C@@H]1[C@H](C)N1CCC(=O)c2c(F)cc(-c3n[nH]c(=O)o3)cc21` [Example 245, 5-fluoro-1-{(1S)-1-[(3S,4S)-3-methylpiperidin-4-yl]ethyl}-7-(5-oxo-4,5-dihydro-1,3,4-oxadiazol-2-yl)-2,3-dihydroquinolin-4(1H)-one hydrochloride] had a concentration for half-maximal inhibition (IC50) in assay [1] of 4.2 nM. Besides, in assay [3], the GI50 worked out at 3200 nM.

Regarding `CO/N=C1\CCN([C@@H](C)[C@H]2CCNC[C@H]2C)c2cc(-c3n[nH]c(=O)o3)cc(F)c21` [Example 246, 5-[(4E)-5-fluoro-4-(methoxyimino)-1-{(1S)-1-[(3S,4S)-3-methylpiperidin-4-yl]ethyl}-1,2,3,4-tetrahydroquinolin-7-yl]-1,3,4-oxadiazol-2(3H)-one hydrochloride], in assay [1], the half-inhibitory concentration (IC50) came out at 1.9 nM. Also, the GI50 in assay [3] was 4900 nM.

Take `C[C@@H]([C@H]1CC[C@H](N)CC1)N1CCOc2ccc(-c3n[nH]c(=O)o3)cc21` [Example 247, 5-(4-{(1S)-1-[(1r,4S)-4-aminocyclohexyl]ethyl}-3,4-dihydro-2H-1,4-benzoxazin-6-yl)-1,3,4-oxadiazol-2(3H)-one]: half-maximal inhibition in assay [1] (IC50) required 2.8 nM. For the same molecule, in assay [3], the GI50 is 120 nM.

For the molecule `C[C@@H](C1CCNCC1)N1CCOc2c(F)cc(-c3n[nH]c(=O)o3)cc21` [Example 248, 5-{8-fluoro-4-[(1S)-1-(piperidin-4-yl)ethyl]-3,4-dihydro-2H-1,4-benzoxazin-6-yl}-1,3,4-oxadiazol-2(3H)-one], the IC50 in assay [1] was determined as 10 nM. Moreover, the GI50 in assay [3] was found to be 250 nM.

As to `C[C@@H]([C@H]1CC[C@H](N)CC1)N1CCOc2c(F)cc(-c3n[nH]c(=O)o3)cc21` [Example 249, 5-(4-{(1S)-1-[(1r,4S)-4-aminocyclohexyl]ethyl}-8-fluoro-3,4-dihydro-2H-1,4-benzoxazin-6-yl)-1,3,4-oxadiazol-2(3H)-one], in assay [1], half-maximal inhibition (IC50) required 4.2 nM. In addition, the GI50 in assay [3] worked out at 110 nM.

In assay [1], `C[C@@H]1CN([C@@H](C)C2CCNCC2)c2cc(-c3n[nH]c(=O)o3)cc(F)c2O1` [Example 250, 5-{(2R)-8-fluoro-2-methyl-4-[(1S)-1-(piperidin-4-yl)ethyl]-3,4-dihydro-2H-1,4-benzoxazin-6-yl}-1,3,4-oxadiazol-2(3H)-one] displayed an IC50 of 5.7 nM. The GI50 in assay [3] was 190 nM.

In assay [1], `C[C@H]1CN([C@@H](C)C2CCNCC2)c2cc(-c3n[nH]c(=O)o3)cc(F)c2O1` [Example 251, 5-{(2S)-8-fluoro-2-methyl-4-[(1S)-1-(piperidin-4-yl)ethyl]-3,4-dihydro-2H-1,4-benzoxazin-6-yl}-1,3,4-oxadiazol-2(3H)-one] showed an IC50 of 12 nM. For the same molecule, in assay [3], the GI50 was determined as 260 nM.

As to `CC1CN(C(C)C2CCC(N)CC2)c2cc(-c3n[nH]c(=O)o3)cc(F)c2O1` [Example 252, 5-[(2S)-4-{(1S)-1-[(1r,4S)-4-aminocyclohexyl]ethyl}-8-fluoro-2-methyl-3,4-dihydro-2H-1,4-benzoxazin-6-yl]-1,3,4-oxadiazol-2(3H)-one hydrochloride], in assay [1], the IC50 came to 6.6 nM. Moreover, in assay [3], the GI50 was 210 nM.

Consider `C[C@@H]1CN([C@@H](C)[C@H]2CC[C@H](N)CC2)c2cc(-c3n[nH]c(=O)o3)cc(F)c2O1` [Example 253, 5-[(2R)-4-{(1S)-1-[(1r,4S)-4-aminocyclohexyl]ethyl}-8-fluoro-2-methyl-3,4-dihydro-2H-1,4-benzoxazin-6-yl]-1,3,4-oxadiazol-2(3H)-one hydrochloride], for which half-maximal inhibition in assay [1] (IC50) required 3 nM. The GI50 in assay [3] stood at 81 nM.

In assay [1], `C[C@@H](C1CCNCC1)N1CCCOc2c(F)cc(-c3n[nH]c(=O)o3)cc21` [Example 254, 5-{9-fluoro-5-[(1S)-1-(piperidin-4-yl)ethyl]-2,3,4,5-tetrahydro-1,5-benzoxazepin-7-yl}-1,3,4-oxadiazol-2(3H)-one hydrochloride] registered an IC50 of 15 nM. Also, the GI50 in assay [3] was 680 nM.

Source of the values: patent US20220024921A1, “1,3,4-OXADIAZOLONE COMPOUND AND PHARMACEUTICAL” (NIPPON SHINYAKU CO., LTD., priority 2018, published 2022).
